Assay results reported in patent US11833158B2, “Compositions comprising omega-3 fatty acids, 17-HDHA and 18-HEPE and methods of using same” (Solutex NA LLC, priority 2015, dated 2023).

Tested on: PMA-stimulated THP-1 cells
Assay: Phagocytosis of opsonized zymosan bioparticles in PMA-stimulated THP-1 cells (fluorescence)
Assay type: cell-based, human
Conditions: oils diluted 1/10^3; Mar-1 at 1 nM; 15 min pretreatment, 60 min incubation with zymosan
Protocol: To determine the capacity of promoting a macrophage pro-resolution phenotype (i.e. M2) and therefore to foster the resolution of inflammation, several oils were tested in a human macrophage model adapted by López Vicario C from a method previously described (Titos et al., 2011) and compared with Mar-1 (the term Maresins is coined from Macrophage mediator in resolving inflammation), an established active compound in resolution of the inflammation.
THP-1 cells were cultured in a 96-well black plate at a density of 3.5×10^4 cells/well in 200 μl RPMI 1640 medium (10% FBS). […]
The compounds tested in this macrophage model were: • Maresin 1 (from Cayman Chemicals) • LM03-1 (a total amount of Omega-3 of about 629.9 mg/g (as FFA), DHA in an amount of about 342.1 mg/g (as FFA), EPA in an amount of about 187.6 mg/g (as FFA), 17-HDHA in an amount of about 60.8 mg/kg and 18-HEPE in an amount of about 87.5 mg/kg with 1.4 mg/g of a mixed natural tocopherols—3624 EE (about 33.0% EPA ethyl ester and about 22% DHA in ethyl ester form expressed as FFA) • Omacor (about 42.5% EPA ethyl ester and about 34.5% DHA in ethyl ester form expressed as FFA)
The concentration of Mar-1 used in the experiment was 1 nM, which has been determined the concentration with maximum activity in phagocytic activation for this compound in previous experiments using this model (data not shown). […]

Structure (SMILES): CC/C=C\C/C=C\C[C@H](O)/C=C/C=C/C=C/[C@H](O)C/C=C\CCC(=O)O [Maresin-1, 7R,14S-dihydroxy-4Z,8E,10E,12E,16Z,19Z-docosahexaenoic acid]
- phagocytic activity relative to Mar-1 (100% assigned to Mar-1 1 nM): 100%
